The structures appear in SMILES notation.

We go through 2 compounds from patent US20050255504A1, “Method of detecting an increased susceptibility to breast cancer” (priority 2004, published 2005).

Data set [1] concerns renal DNA. Particulars: hamster, in vivo; cited from earlier work.
Data set [2] deals with T1, COMT (Homo sapiens, UniProt P21964).
T1 construct: made in house; host or cells: Escherichia coli DH5alphaF'Iq
T1 sequence (P21964 1-221 isoform P21964-2): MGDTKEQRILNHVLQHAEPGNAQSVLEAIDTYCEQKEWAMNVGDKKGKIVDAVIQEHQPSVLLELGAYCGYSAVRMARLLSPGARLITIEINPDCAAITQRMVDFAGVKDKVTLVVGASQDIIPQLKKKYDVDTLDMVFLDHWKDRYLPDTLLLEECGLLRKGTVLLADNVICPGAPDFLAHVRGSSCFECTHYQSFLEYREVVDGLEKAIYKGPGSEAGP
The experiment in a line: Assay of COMT activity: methylation of catechol estrogens by purified recombinant His-COMT. It is filed as biochemical. Particulars: substrate of COMT, FIG. 9. The method, then: Assay of COMT Activity. Purified recombinant His-COMT (300 pmol) was reconstituted in 0.5 ml of 100 mM KPO4, pH 7.4, containing 5 mM MgCl2, 10 mM (β-mercaptoethanol, and 200 μM SAM. Reactions were initiated by adding varying concentrations of each individual catechol estrogen (2, 3, 6, 9, 12, 15, 20, 40, 60, 80, and 100 μM). Blanks contained all compounds except SAM. Reactions proceeded for 10 min at 37° C. with gentle shaking and then were terminated by addition of 2 ml CH2Cl2. To determine COMT activity in breast cancer cells, ZR-75 and MCF-7 cells were harvested at confluency and homogenized in 100 mM KP04, pH 7.4, 5 mM MgCl2, 10 mM β-mercaptoethanol. Following ultracentrifugation of the cell homogenate (110,000 g, 30 min, 4° C.), the supernatant cytosol was divided into aliquots for ICELISA, protein determination (BCA assay; Pierce, Rockford, Ill.), and COMT assay. The latter was carried out in the presence of 200 μM SAM and 100 μM catechol estrogen for 20 min at 37° C. and then terminated by addition of CH2Cl2. The concentration of endogenous catechol and methoxy estrogens was below the limit of detection by gas chromatography/mass spectrometry.
Extraction and Gas Chromatography/Mass Spectrometry Analysis of Catechol Estrogens. A deuterated internal standard (100 μl of 8 mg/liter E2-d4 in methanol) was added and all estrogens extracted into the CH2Cl2 by vortex mixing for 30 s. 1.5 ml of the CH2Cl2 fraction was evaporated to dryness under air and volatile TMS derivatives prepared by heating the residue with 100 μl of 50% NO-bis(trimethylsilyl)trifluoroacetamide/1% trimethyl chlorosilane in acetonitrile at 56° C. for 30 min. The TMS derivatives of the estrogen metabolites were separated by gas chromatography (H—P 5890, Hewlett-Packard, Wilmington, Del.) on a 5% phenyl methyl silicone stationary phase fused silica capillary column (30 m×0.2 mm×0.5 μm film, HP5; Hewlett-Packard). Helium carrier gas was used at a flow of 1 ml/min. The injector was operated at 250° C., with 2 μl injected in the splitless mode, with a purge (60 ml/min helium) time of 0.6 min. The oven temperature was held at 180° C. for 0.5 min, then raised at 6° C./min to 250° C. where it was held for 17 min, then raised to 300° C. at 8° C./min to give a total run time of 35.42 min. This program permitted adequate separation of a wide range of estrogen metabolites. Retention times (in min) for the TMS derivatives were E1 20.13, E2 and E2-d4 21.89, 4-MeOE1 23.52, 2-MeO-3-MeOE1 (underivatized) 23.75, 2-OH-3-MeOE1 24.87, 2-MeOE1 25.2, 4-MeOE2 25.78, 2-OHE1 and 2-MeO-3-MeOE2 26.19, 2-OH-3-MeOE2 26.9, 2-MeOE2 27.18, 4-OHE1 27.27, 6a-OHE2 27.29, 2-OHE2 27.44, 4-OHE2 28.06, E3 28.38. The E1 mass spectrometer (H—P 5970) was operated in the selected ion monitoring mode from 18 to 30 min. Ions monitored were TMS-E1 342, 257, 343; TMS2-E2-d4 420, 421, 287; TMS2-E2 416, 417, 285; TMS-4-MeOE1, TMS-2-OH-3-MeOE1, TMS-2-MeOE1 and TMS-3-MeO-4-OHE1 372, 373, 342; 2-MeO-3-MeOE1 314, 315, 229; TMS2-4-MeOE2, TMS2-2-OH-3-MeOE2, TMS2-2-MeOE2 and TMS2-3-MeO-4-OHE2 446, 447, 315; TMS2-2-OHE1 430, 431, 432; TMS-2-MeO-3-MeOE2 388, 389, 257; TMS2-4-OHE1 430, 431, 345; TMS2-6α-OHE2 414, 283, 309; TMS3-2-OHE2 and TMS3-4-OHE2 504, 505, 373; TMS3-E3 504, 505, 311 (FIG. 7). The instrument was calibrated by simultaneous preparation of an 11-point calibration over the range 0-22 nmol/tube of each compound. Sensitivity was determined to be between 0.02 and 0.04 nmol/tube (400-800 finol on column) for the various compounds. […] Absolute extraction efficiency for E2,2-OH-E2 and 4-OH-E2 at 3.5 nmol/tube was 119, 96, and 107% assessed by comparison to injections of spiked solvent samples onto the gas chromatograph. Internal standard added prior to extraction compensated for deviation from 100% recovery for all investigated compounds.
Statistical Analysis. […]

Turning to `C[C@]12CC[C@@H]3c4ccc(O)c(O)c4CC[C@H]3[C@@H]1CCC2=O` [Variant 4-OHE1], the “levels of the oxidized base 8-hydroxy-deoxyguanosine in renal DNA” value in data set [1] was “significantly increased”. In data set [2], the “pattern of the rates of methylation versus substrate concentration” value was “sigmoid curve pattern”.
Take `C[C@]12CC[C@@H]3c4ccc(O)c(O)c4CC[C@H]3[C@@H]1CC[C@@H]2O` [Variant 4-OHE2]: in data set [1], the “levels of the oxidized base 8-hydroxy-deoxyguanosine in renal DNA” value is “significantly increased”. For the same compound, the “pattern of the rates of methylation versus substrate concentration” value in data set [2] is “sigmoid curve pattern”.
